Measured values reported in patent US5250673A, “2'-deoxy-5-substituted uridine derivatives” (priority 1983, dated 1993).
Where two headings read alike, the source gives them in different places.

Experiments:
Type in all cases: in vivo, mouse
[1] = tested on: Sarcoma 180; experiment: antitumor activity: 50% inhibition of tumor enhancement, Sarcoma 180 transplanted in mice; conditions: oral, once a day, 7 days, male ICR/JCL mice, tumor weight day 10
Procedure: (a) Method for determining of antitumor activity value
5×10^6 Cells of mouse-transplantable tumor Sarcoma 180 were transplanted to each male ICR/JCL-strain mouse (having a weight of 27 to 30 g) subcutaneously at the back. Each test compound dissolved or suspended in 0.1% Tween 80^(*) - 0.5% CMC solution was orally administered to various test groups each consisting of 7 mice once a day for 7 consecutive days from the next day of tumor transplanting, in an amount of 1.0 ml of solution or suspension per 100 g weight per day. As to a control group, the same Tween 80-CMC solution containing no test compound was orally administered once a day for 7 consecutive days in an amount of 1.0 ml per 100 g weight per day. (*) (A trademark for a series of surface which is a polyoxyethylene derivative of fatty acid partial ester of sorbitol anhydride, manufactured by I.C.I. U.S., Inc.)
On the tenth day from the tumor transplanting, an average tumor weight for each administration level of each test compound was determined. This weight was compared with an average tumor weight in control group, and the ratio of tumor enhancement inhibition at each administration level of each test compound compared with control group was calculated. From these calculations, the administration level of each test compound at which the ratio of tumor enhancement inhibition become 50% was obtained and the level (amount) was taken as the antitumor activity value of each compound.

[2] = toxicity value: 50% inhibition of weight increase of test animal (Sarcoma 180 tumor-transplanted mice); conditions: mouse, sarcoma 180 bearing mice, oral, once a day, 7 days, male ICR/JCL mice, read-out: Toxicity value (B) Administration amount of test compound at which weight increase of test animal is inhibited by 50% compared with that of control group
Procedure: (b) Method for determining toxicity value
Hitherto, toxicity values of anti-malignant tumor agents have been calculated on the bases of LD50 of test animals, in most cases. […] Therefore, in the present test, accumulated toxicity, which well represents the toxicity of anti-malignant tumor agents, was focused on and, as an indication for sensitive detection of the accumulated toxicity, inhibition of weight increase of test animal was measured. That is, when antitumor activity value was determined in the above item (a), the weight of each mouse of each test groups for each test compounds was measured daily from the day of tumor transplanting, immediately before administration.
On the day of tumor weight measurement, the average net weight increase of each mouse of each test groups for each test compounds from the day of tumor transplanting was measured. These increases were compared with the average net weight increase of control group and the ratio of net weight increase of each test groups of each test compounds to that of control group was calculated. From these calculations, there was obtained an addition amount of each test compound at which weight increase is inhibited by 50% compared with that of control group, and that amount was taken as a toxicity value of each compound.

[3] = tested on: Sarcoma 180; experiment: calculation of therapeutic index (B)/(A), Sarcoma 180 mice; parameters: key: C = toxicity value (B) / antitumor activity value (A); conditions: oral, once a day, 7 days
Procedure: (c) Calculation of therapeutic index
By the use of the antitumor activity value (hereinafter referred to as A) and the toxicity value (hereinafter referred to as B) of each compound, which were obtained in the above items (a) and (b), respectively, therapeutic index (hereinafter referred to as C) was calculated in accordance with the following equation.
Therapeutic index (C)=^(B)(A)

| SMILES | Antitumor activity value (A) Administration amount of test compound at which tumor enhancement is inhibited by 50% compared with that of control group ([1]; Table 1-a) [mg/kg/day] | TD50 at 240 h ([2]; Table 1-a) [mg/kg] | Therapeutic index (C) = (B)/(A) ([3]; Table 1-a) | Antitumor activity value (A) Administration amount of test compound at which tumor enhancement is inhibited by 50% compared with that of control group ([1]; Table 1-b) [mg/kg/day] | TD50 at 240 h ([2]; Table 1-b) [mg/kg] | Therapeutic index (C) = (B)/(A) ([3]; Table 1-b) | also measured |
| --- | --- | --- | --- | --- | --- | --- | --- |
| O=c1[nH]c(=O)n([C@H]2C[C@H](O)[C@@H](COCc3ccc(Cl)cc3)O2)cc1C(F)(F)F [Compound 11] | 18 | 22 | 1.22 |  |  |  |  |
| O=C(c1ccccc1)n1c(=O)c(C(F)(F)F)cn([C@H]2C[C@H](O)[C@@H](COCc3ccccc3)O2)c1=O [Compound 27, 3-benzoyl-5'-O-benzyl-2'-deoxy-5-trifluoromethyluridine] |  |  |  | 25 | 35 | 1.40 |  |
| CCOC[C@H]1O[C@@H](n2cc(F)c(=O)n(C(=O)c3ccccc3)c2=O)C[C@@H]1O [Compound 35, 3-benzoyl-2'-deoxy-5'-O-ethyl-5-fluorouridine] |  |  |  |  |  |  | Antitumor activity value (A) Administration amount of test compound at which tumor enhancement is inhibited by 50% compared with that of control group ([1]; Table 1-c): 51 mg/kg/day; TD50 at 240 h ([2]; Table 1-c): 70 mg/kg; Therapeutic index (C) = (B)/(A) ([3]; Table 1-c): 1.37 |
| O=c1[nH]c(=O)n([C@H]2C[C@H](OCc3ccccc3)[C@@H](CO)O2)cc1C(F)(F)F [Compound 33, 3'-O-benzyl-2'-deoxy-5-trifluoromethyluridine] |  |  |  | 17 | 32 |  |  |
| O=c1[nH]c(=O)n([C@H]2C[C@H](OCc3ccc(Cl)cc3)[C@@H](CO)O2)cc1C(F)(F)F [Compound 12] | 12 | 17 | 1.42 |  |  |  |  |
| COC[C@H]1O[C@@H](n2cc(C(F)(F)F)c(=O)[nH]c2=O)C[C@@H]1O [Compound 29] |  |  |  | 48 | 72 | 1.50 |  |
| Cc1ccccc1CO[C@H]1C[C@H](n2cc(C(F)(F)F)c(=O)[nH]c2=O)O[C@@H]1CO [Compound 14] | 40 | 57 | 1.43 |  |  |  |  |
| CCOC[C@H]1O[C@@H](n2cc(C(F)(F)F)c(=O)[nH]c2=O)C[C@@H]1O [Compound 30, 2'-deoxy-5'-O-ethyl-5-trifluoromethyluridine] |  |  |  | 19 | 32 | 1.68 |  |
| COc1ccc(COC[C@H]2O[C@@H](n3cc(C(F)(F)F)c(=O)[nH]c3=O)C[C@@H]2O)cc1 [Compound 17] | 45 | 51 | 1.13 |  |  |  |  |
| O=C(c1ccccc1)n1c(=O)c(C(F)(F)F)cn([C@H]2C[C@H](OCc3ccccc3)[C@@H](CO)O2)c1=O [Compound 28, 3-benzoyl-3'-O-benzyl-2'-deoxy-5-trifluoromethyluridine] |  |  |  | 25 | 35 | 1.40 |  |
| Cc1ccccc1COC[C@H]1O[C@@H](n2cc(C(F)(F)F)c(=O)[nH]c2=O)C[C@@H]1O [Compound 13, 2'-deoxy-5'-O-(2-methylbenzyl)-5-trifluoromethyluridine] | 48 | 65 | 1.35 |  |  |  |  |
| O=c1[nH]c(=O)n([C@H]2C[C@H](O)[C@@H](COCc3ccccc3)O2)cc1F [Compound 41] |  |  |  |  |  |  | Antitumor activity value (A) Administration amount of test compound at which tumor enhancement is inhibited by 50% compared with that of control group ([1]; Table 1-c): 13 mg/kg/day; TD50 at 240 h ([2]; Table 1-c): 30 mg/kg; Therapeutic index (C) = (B)/(A) ([3]; Table 1-c): 2.31 |
| CCOC[C@H]1O[C@@H](n2cc(F)c(=O)[nH]c2=O)C[C@@H]1O [Compound 39] |  |  |  |  |  |  | Antitumor activity value (A) Administration amount of test compound at which tumor enhancement is inhibited by 50% compared with that of control group ([1]; Table 1-c): 28 mg/kg/day; TD50 at 240 h ([2]; Table 1-c): 67 mg/kg; Therapeutic index (C) = (B)/(A) ([3]; Table 1-c): 2.39 |
| O=c1[nH]c(=O)n([C@H]2C[C@H](O)[C@@H](COCc3ccccc3)O2)cc1C(F)(F)F [Compound 32, 2'-deoxy-5'-O-benzyl-5-trifluoromethyluridine] |  |  |  | 19 | 34 | 1.79 |  |
| CCO[C@H]1C[C@H](n2cc(C(F)(F)F)c(=O)[nH]c2=O)O[C@@H]1CO [Compound 31, 2'-deoxy-3'-O-ethyl-5-trifluoromethyluridine] |  |  |  | 20 | 30 | 1.50 |  |
| O=c1c(C(F)(F)F)cn([C@H]2C[C@H](O)[C@@H](COCc3ccccc3)O2)c(=O)n1C1CCCO1 (stereo partly shown) [Compound 21, 3-(2-tetrahydrofuranyl)-2'-deoxy-5'-O-benzyl-5-trifluoromethyluridine] | 22 | 30 | 1.36 |  |  |  |  |
| CCO[C@H]1C[C@H](n2cc(C(F)(F)F)c(=O)n(C(=O)c3ccccc3)c2=O)O[C@@H]1CO [Compound 25, 3-benzoyl-2'-deoxy-3'-O-ethyl-5-trifluoromethyluridine] |  |  |  | 38 | 31 | 0.82 |  |
| O=c1[nH]c(=O)n([C@H]2C[C@H](OCc3ccccc3)[C@@H](CO)O2)cc1F [Compound 40, 2'-deoxy-3'-O-benzyl-5-fluorouridine] |  |  |  |  |  |  | Antitumor activity value (A) Administration amount of test compound at which tumor enhancement is inhibited by 50% compared with that of control group ([1]; Table 1-c): 17 mg/kg/day; TD50 at 240 h ([2]; Table 1-c): 35 mg/kg |
| CCCCOC[C@H]1O[C@@H](n2cc(C(F)(F)F)c(=O)n(C(=O)c3ccccc3)c2=O)C[C@@H]1O [Compound 26] |  |  |  | 50 | 74 | 1.48 |  |
| CCOC[C@H]1O[C@@H](n2cc(C(F)(F)F)c(=O)n(C(=O)c3ccccc3)c2=O)C[C@@H]1O [Compound 24, 3-benzoyl-2'-deoxy-5'-O-ethyl-5-trifluoromethyluridine] |  |  |  | 26 | 36 | 1.38 |  |
| Cc1cccc(CO[C@H]2C[C@H](n3cc(C(F)(F)F)c(=O)[nH]c3=O)O[C@@H]2CO)c1 [Compound 16, 2'-deoxy-3'-O-(3-methylbenzyl)-5trifluoromethyluridine] | 31 | 45 | 1.45 |  |  |  |  |
